{"source": "patent US20030021796A1", "about": "“Method of enhancing T cell immunity by selection of antigen specific T cells” (priority 2001, published 2003)", "key": {"[1]": {"system": "TCR^TgTCRα^− lymph node cells", "test": "Proliferation of TCR transgenic lymph node cells stimulated with agonist peptides ([3H]thymidine incorporation)", "format": "cell-based, mouse", "protocol": "Antigen response of TCR transgenic cells. Proliferation of lymph node cells isolated from TCR^TgTCRα^−and TCR^TgTCRα^−2-M^−Ii^− mice injected with the selecting peptide was measured in response to antigen. Response of the TCR^TgTCRα^− lymph node cells to different agonist peptides was measured by proliferation assay in a 96-well plate. 10^5 responder cells were stimulated with peptides presented by 5×10^5 irradiated C57BL6 splenocytes. Agonist peptides were used at concentrations of 0.01, 0.1, 0.5, 1.0, 2.5, 5.0, 10.0 and 20.0 μM. After 3 days cells were pulsed with 1 μCi of [^3H]thymidine added to each well and after 18 hours thymidine incorporation was measured. The sequences of peptides used were: PCC50V (AEGFSYTVANKNKGIT), PCC50L (AEGFSYTLANKNKGIT), PCC50V54A (AEGFSYTVANKAKGIT), PCC46A49A50V54A (AEGASYAVANKAKGIT), PCC50F54A (AEGFSYTFANKAKGIT), neutral ceramidase (AGFFQYTLYILASEG) and IgGVH (NADFKTPATLTVDKA). All peptides were synthesized by FMOC (fluorenyl methoxycarbonyl) chemistry and purified by reversed-phase high-performance liquid chromatography. To compare the antigenic response of CD4^+ TCR Tg cells lymph node cells were collected from TCR^TgTCRα^− and TCR^TgTCRα^−H2-M^−Ii^− mice two weeks after peptide injection. Single cell suspensions were prepared and CD4^+ cells were sorted using magnetic beads coated with anti CD4 antibodies (MACS). Purity of sorted cells exceeded 85%. 2×10^4 of purified CD4^+ cells were used in proliferation assay. Cells were stimulated with increasing concentrations of agonist peptides presented by APCs from wild type or H2-M^−Ii^− mice. IgGVH derived peptide (20 μM) was used as a negative control. Peptides were presented by irradiated splenocytes from a C57BL6 mouse. Proliferation was measured after 3 days by thymidine incorporation by pulsing cells with 1 μCi of [^3H] thymidine for 18 hours. Antagonism assay was done by prepulsing 5×10^5 antigen-presenting cells per well for 2 hr. with 5 μM of the antigenic peptide PCC50V54A, washing, and then exposing them to varying concentrations of peptide analogs with 2×10^4 purified CD4^+ TCR^Tg lymphocytes as responder cells (Lyons et al., 1996). For antagonism assays the percent of proliferation inhibition was calculated as 100-100*(thymidine incorporation in the presence of antagonist/thymidine incorporation in the absence of antagonist) (Lyons et al., 1996)."}, "lymph node cells": {"system": "lymph node cells", "test": "Repopulation of peripheral lymph nodes in peptide-injected TCR^TgTCRα^−H2-M^−Ii^− mice", "format": "in vivo, mouse", "protocol": "Flow cytometry analysis. Monoclonal antibodies specific for CD4(RM4-5), CD8(53-6.7), VβB8(F23.1), CD69(H1.2F3), CD44(IM7) and CD62L(MEL-14) were purchased from PharMingen (San Diego, Calif.) and used according to manufacturer's recommendations. Cells were analyzed using a FACSCalibur instrument (Becton Dickinson, San Jose, Calif.) and CellQuest software. For intracellular stain cells were first stained for CD4 and CD8, fixed in 2% paraformaldehyde, permeabilized in 0.1% Tween-20 and stained with anti-bcl-2 antibody (Pharmingen) according to manufacturer instruction.\nPeptide injections and surgical procedures. TCR^TgTCRα^− and TCR^TgTCRαH2-M^−Ii^− were injected i.p. with agonist and control peptides dissolved in PBS. After indicated time mice were sacrificed, thymus and lymph nodes were collected and single cell suspensions were prepared. Pups were injected with 2 μg of peptide subcutaneously 12-24 hours after birth and thymi were transplanted into recipient mice 24 hours after injection. 5-8 week old TCR^TgTCRα^− H2-M^−Ii^− mice were used for thymectomy or as thymic transplant recipients. Surgical procedures were performed as described (Coligan et al., 1997). Mice were handled according with the institutional guidance."}, "transgenic thymocytes": {"system": "transgenic thymocytes", "test": "Fetal thymic organ cultures (FTOC) from TgTCRα^−H-2M^−Ii^− mice with peptide", "format": "cell-based, mouse", "conditions": "continuous delivery of peptide at low concentration", "from_the_text": "The TgTCRα^−H-2M^−Ii^− system enables the visualization of thymocyte positive selection in real time and in the native intrathymic environment. An in vitro system was setup where the transgenic thymocytes undergo efficient positive selection and commit to the CD4^+ lineage. […] These observations agreed with the previous reports in which CD8^+, but not CD4+, T cells could be positively selected by the specific peptide in FTOCs (Kenty et al., 1998; Liblau et al, 1996). Therefore, neonatal thymic organ cultures (NTOC) were established from TgTCRα^−-H-2M^−Ii^− neonates. The neonates received a single i.p. injection of the PCC50V54A peptide just after birth and were sacrificed 24 hours later when their thymuses were harvested."}, "[2]": {"system": "peptide selected CD4^+ cells", "test": "Antigen response (proliferation) of lymph node CD4^+ cells from peptide-injected TCR^TgTCRα^−H2-M^−Ii^− mice", "format": "cell-based, mouse", "protocol": "Antigen response of TCR transgenic cells. Proliferation of lymph node cells isolated from TCR^TgTCRα^−and TCR^TgTCRα^−2-M^−Ii^− mice injected with the selecting peptide was measured in response to antigen. Response of the TCR^TgTCRα^− lymph node cells to different agonist peptides was measured by proliferation assay in a 96-well plate. 10^5 responder cells were stimulated with peptides presented by 5×10^5 irradiated C57BL6 splenocytes. Agonist peptides were used at concentrations of 0.01, 0.1, 0.5, 1.0, 2.5, 5.0, 10.0 and 20.0 μM. After 3 days cells were pulsed with 1 μCi of [^3H]thymidine added to each well and after 18 hours thymidine incorporation was measured. The sequences of peptides used were: PCC50V (AEGFSYTVANKNKGIT), PCC50L (AEGFSYTLANKNKGIT), PCC50V54A (AEGFSYTVANKAKGIT), PCC46A49A50V54A (AEGASYAVANKAKGIT), PCC50F54A (AEGFSYTFANKAKGIT), neutral ceramidase (AGFFQYTLYILASEG) and IgGVH (NADFKTPATLTVDKA). […] Proliferation was measured after 3 days by thymidine incorporation by pulsing cells with 1 μCi of [^3H] thymidine for 18 hours. […] For antagonism assays the percent of proliferation inhibition was calculated as 100-100*(thymidine incorporation in the presence of antagonist/thymidine incorporation in the absence of antagonist) (Lyons et al., 1996)."}, "B16 melanoma cells": {"system": "B16 melanoma cells", "test": "Protection against B16 melanoma transfected with A^bPCC50V54A-YFP in TCR^Tgα^−H-2M^−Ii^− mice", "format": "in vivo, mouse", "protocol": "Protection of a mouse melanoma model. Peptide selected CD4^+ T cells are shown to be functional and protect mice from melanoma tumor cells. To determine if peptide selected T lymphocytes are able to mount an effective immune response in vivo the ability of peptide-selected CD4^+ cells to protect mice from melanoma was assessed. Melanoma B16-F1 was transfected with constructs encoding the A^bβPCC50V54A chain tagged with yellow fluorescent protein (YFP) and A^bα chain. These transfectants weakly stimulated TCR^Tgα^− CD4^+ cells from wild type mice. TCR^Tgα^−H2-M^−Ii^− mice received subcutaneous injection of B16 melanoma transfectants. At the same time, half of these mice also received selecting agonist peptide. After 12 days, animals were sacrificed, and the phenotype of tumor cells and peripheral CD4^+ T cells in draining lymph nodes was examined. As shown in FIGS. 16A-E, only mice that received selecting peptide accumulated peripheral CD4^+ T cells. These cells responded to tumor as assessed by upregulation of CD69 and downregulation of CD62L. Most importantly, tumors in mice that received a selecting peptide were much smaller (4-6 times) and were composed of melanoma cells without surface expression of antigenic complex (only about ¼ of cells were YFP^+ compared to more then ¾ in mice not treated with the selecting peptide). […]"}}, "note": "Entries after “also recorded” stand apart in the source; their conditions may differ."}
{"sequence": "AEGFSYTVANKAKGIT [PCC50V54A, analog of pigeon cytochrome C peptide PCC(43-58)]", "values": [{"measurement": "agonist potency / agonist properties", "setting": "[1]; in vitro stimulation of transgenic T cells", "value": "strong agonist"}, {"measurement": "recognition by the transgenic TCR / stimulation of transgenic cells", "setting": "[1]; peptides presented by irradiated C57BL6 splenocytes", "value": "recognizes; also recorded: stimulate"}, {"measurement": "CD4^+ cells in peripheral lymph nodes", "setting": "lymph node cells; after i.p. injection, about two weeks", "value": "increase in the number of CD4^+ cells"}, {"measurement": "phenotype of peripheral CD4^+ cells (CD44, CD62L)", "setting": "lymph node cells; mouse, in vivo", "value": "had naïve phenotype"}, {"measurement": "total number of lymph node cells", "setting": "lymph node cells; two weeks after injection", "value": "44.1×10^6±9.8"}, {"measurement": "lineage commitment of thymocytes in FTOC", "setting": "transgenic thymocytes", "value": "the majority of thymocytes committed to the CD8 lineage"}, {"measurement": "response of peptide selected CD4^+ cells to agonist peptides in vitro", "setting": "[2]", "value": "functional and respond to agonist peptides; also recorded: weakly respond in vitro"}, {"measurement": "tumor mass / size relative to mice without selecting peptide", "setting": "B16 melanoma cells; 20 μg i.p.", "value": "4-6 times smaller"}, {"measurement": "expression of A^bPCC50V54A-YFP on remaining tumor cells", "setting": "B16 melanoma cells; more then ¾ YFP^+ in mice not treated", "value": "do not express A^bPCC50V54A-YFP"}]}
